Reference: patent publication US9187458B2, “Cyanoquinoline derivatives” (Tianjin Hemay Bio-Tech Co., LTD., priority 2010, dated 2015)

Experiments:
NCI-H358 cells = assay: NCI-H358 Cell Growth Inhibition Test (MTT Assay); type: cell-based; settings: Homo sapiens, 72 h incubation
Experimental: NCI-H358 Cell Growth Inhibition Test (MTT Assay)
Cell strains: NCI-H358 (human non-small cell lung cancer cell strains);
(§1) 1. A plate (10 cm) of cells in logarithmic growth phase normally cultured was collected;
(§2) 2. The culture solution was sucked out. The plate was washed with 5 ml of PBS 1-2 times;
(§3) 3. PBS was sucked out. 1.5 ml of 0.25% pancreatin was added to infiltrate the cells for 1 min;
4. The culture plate was placed in an incubator. Digestion was carried out for about 5 min at 37° C.;
5. 3 ml of complete culture solution was added to the culture plate to stop the digestion. Tthe cells were carefully scoured with micropipette (1 ml) to give a uniform cell suspension. The suspension was implanted into a 96-well cell culture plate by 10000 cells/100 […] per well. The culture plate was incubated overnight under 5% CO2 at 37° C. In day 2, 100 μA of culture solution comprising a compound was added in each well, and further incubated for 72 h under 5% CO2 at 37° C.
(§4) 6. The culture solution was sucked out;
7. 100 μA of serum-free culture solution containing 0.5 mg/ml MTT was added in each well, and incubated for 3 h;
(§5) 8. The culture solution was carefully sucked out;
9. 100 μA of DMSO was added in each well and vibrated to dissolve;
(§6) 10. OD values were determined at 490 nM.
(§7) 1. Calculation of Relative Inhibition Ratio The inhibition ratio of a compound on cell growth=(PC−n)/(PC−NC)×100%
(§8) IC50: Concentration of a compound where inhibition ratio was 50%. IC50 values were fitted with Origin7.5.

BxPc-3 cells = assay: BxPc-3 Cell Growth Inhibition Test (MTT Assay); type: cell-based; settings: Homo sapiens, 72 h incubation
Experimental: BxPc-3 Cell Growth Inhibition Test (MTT Assay) Cell strains: BxPC-3 (human pancreatic cancer cell strains); Culture medium: 90% RPMI-1640+10% FBS; 1. A plate (10 cm) of cells in logarithmic growth phase normally cultured was collected; 2. The culture solution was sucked out. […] The plate was washed with 5 ml of PBS 1-2 times; 3. PBS was sucked out. 1.5 ml of 0.25% pancreatin was added to infiltrate the cells for 1 min; 4. The pancreatin was sucked out. The culture plate was placed in an incubator. Digestion was carried out for about 5 min at 37° C.; 5. 4.5 ml of complete culture solution was added to the culture plate to stop the digestion. The cells were carefully scoured with micropipette (1 ml) to give a uniform cell suspension. The suspension was implanted into a 96-well cell culture plate by 5000 cells/100 μl per well. The culture plate was incubated overnight under 5% CO2 at 37° C. In day 2, 100 μl of culture solution comprising a compound was added in each well, and further incubated for 72 h under 5% CO2 at 37° C. 6. The culture solution was sucked out; 7. 100 μl of serum-free culture solution containing 0.5 mg/ml MTT was added in each well, and incubated for 3 h; 8. The culture solution was carefully sucked out; 9. 100 μl of DMSO was added in each well and vibrated to dissolve; 10. OD values were determined at […]. 1. Calculation of Relative Inhibition Ratio The inhibition ratio of a compound on cell growth=(PC−n)/(PC−NC)×100% IC50: Concentration of a compound where inhibition ratio was 50%. IC50 values were fitted with Origin7.5.

MDA-MB-453 cells = assay: MDA-MB-453 Cell Growth Inhibition Test (SRB Assay); type: cell-based; settings: Homo sapiens, 72 h incubation
Experimental: MDA-MB-453 Cell Growth Inhibition Test (SRB Assay)
Cell strains: MDA-MB-453 (human breast cancer cell strains);
SRB: 0.4% (w/v) working solution was formulated with 1% glacial acetic acid, reserved at 4° C.; antitumor compounds; DMSO
Culture medium: 90% L15+10% FBS;
as §1
2. The culture solution was sucked out. The plate was washed with 5 mL of PBS 1-2 times;
3. 1.5 mL of 0.25% pancreatin was added to the plate to infiltrate the cells;
4. The pancreatin was sucked out. The culture plate was placed in an incubator. Digestion was carried out for about 3 min at 37° C.;
5. 4 mL of complete culture solution was added to the culture plate to stop the digestion. The cells were carefully scoured with micropipette (1 ml) to give a uniform single cell suspension. The suspension was implanted into a 96-well cell culture plate by 7000 cells/100 μl per well. The culture plate was incubated overnight under 5% CO2 at 37° C. In day 2, 100 μl of culture solution comprising a compound was added in each well, and further incubated for 72 h under 5% CO2 at 37° C.;
6. The culture solution was sucked out. 100 uL of TCA fixed cells which were diluted to 10% were added to each well. The plate was kept in a refrigerator for 1 h at 4° C.
7. TCA stationary liquid was sucked out. […]
13. OD values were determined at […]. […]

BT-474 cells = assay: BT-474 Cell Growth Inhibition Test (SRB Assay); type: cell-based, human; settings: Homo sapiens, 70 h incubation
Outline: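 Human breast tumour BT-474 cells (1×10^5/ml seeding, overnight) exposed to compound 70 h at 37 °C, 5% CO2; TCA-fixed, SRB-stained, dye dissolved in 10 mM Tris and OD read at 570 nm. Inhibition ratio = (PC−n)/(PC−NC)×100%; IC50 is the concentration giving 50% inhibition, from fitted curves.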

SK-OV-3 cells = assay: SK-OV-3 Cell Growth Inhibition Test (MTT Assay); type: cell-based; settings: Homo sapiens, 72 h incubation
Experimental: SK-OV-3 Cell Growth Inhibition Test (MTT Assay)
Cell strains: SK-OV-3 (human ovarian cancer cell strains);
Culture medium: 90% McCoy's 5A+10% FBS;
as §1, §2, §3
4. The pancreatin was sucked out. The culture plate was placed in an incubator. Digestion was carried out for about 5 min at 37° C.;
5. 4.5 ml of complete culture solution was added to the culture plate to stop the digestion.T the cells were carefully scoured with micropipette (1 ml) to give a uniform cell suspension. The suspension was implanted into a 96-well cell culture disc by 4000 cells/100 μl per well. The culture plate was incubated overnight under 5% CO2 at 37° C. In day 2, 100 μl of culture solution comprising a compound was added in each well, and further incubated for 72 h under 5% CO2 at 37° C.
as §4
7. 100 μl of serum-free culture solution containing 0.5 mg/ml MTT was added in each well, and incubated for 3 h;
as §5
9. 100 μl of DMSO was added in each well and vibrated to dissolve;
as §6, §7, §8

Work on `C#Cc1cccc(Nc2c(C#N)cnc3cc(O[C@H]4CCOC4)c(NC(=O)/C=C/CN(CCO)CCO)cc23)c1` [Example 188, (S,E)-N-(3-CYANO-4-(3-ETHYNYLPHENYLAMINO)-7-(TETRAHYDROFURAN-3-YL-OXY)QUINOLIN-6-YL)-4-(DIETHANOLAMINO)-BUT-2-ENAMIDE] yielded an IC50 (NCI-H358 cells) of 110 nM.

With `CN1CCC(Oc2cc3ncc(C#N)c(Nc4ccc(Oc5ccccc5)nc4)c3cc2NC(=O)/C=C2/CCNC2)CC1` [Example 131, (E/Z)-N-(3-CYANO-7-(1-METHYLPIPERIDIN-4-YL-OXY)-4-(6-(PHENOXYPYRIDIN-3-YL-AMINO)QUINOLIN-6-YL)-2-(PYRROLIDIN-3-YLIDENE)ACETAMIDE] the IC50 (BxPc-3 cells) was 306 nM.

For `C#Cc1cccc(Nc2c(C#N)cnc3cc(O[C@H]4CCOC4)c(NC(=O)/C=C/CN(C)CCOC)cc23)c1` [Example 189, (S,E)-N-(3-CYANO-4-(3-ETHYNYLPHENYLAMINO)-7-(TETRAHYDROFURAN-3-YL-OXY)QUINOLIN-6-YL)-4-(N-METHYLMETHOXYETHYLAMINO)-BUT-2-ENAMIDE], the IC50 (MDA-MB-453 cells) was 523 nM, the IC50 (BT-474 cells) was 108 nM and the inhibition at 1 µM (BT-474 cells; BT-474, 70 h, compound 1 μM, read-out: Growth Inhibition Ratio (%)) was 85%. For the same compound, the IC50 (SK-OV-3 cells) was 312 nM.
